Results reported in ChEMBL document CHEMBL1201862, “PubChem BioAssay data set” (2004).
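Protocol summary: plate cells (96-well), add compound at 5 concentrations, incubate 48 h, interpolate endpoints linearly. GI50 is the concentration that inhibits growth by half.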 Activity calls are given as the source filed them. No stated cut-off is given here; in the data, active = GI50 up to about 1.1 µM and inactive = higher.

What was measured:
Experiment in all cases: NCI-60 cell line screen, 48 h
[1] = test system: Malme-3M
[2] = test system: XF498
[3] = test system: NCI-H226
[4] = test system: DLD-1
[5] = test system: KM-20L2
[6] = test system: A549
[7] = test system: M14
[8] = test system: CCRF-CEM
[9] = test system: NCI-H460
[10] = test system: LOX IMVI
[11] = test system: OVCAR-8
[12] = test system: NCI-H522
[13] = test system: A498
[14] = test system: SK-MEL-2
[15] = test system: HOP-92
[16] = test system: CAKI-1
[17] = test system: MDA-N
[18] = test system: PC-3
[19] = test system: NCI/ADR-RES
[20] = test system: Hs-578T

Compound	GI50 [1]	GI50 [2]	GI50 [3]	GI50 [4]	GI50 [5]	GI50 [6]	GI50 [7]	GI50 [8]	GI50 [9]	GI50 [10]	GI50 [11]	GI50 [12]	GI50 [13]	GI50 [14]	GI50 [15]	GI50 [16]	GI50 [17]	GI50 [18]	GI50 [19]	GI50 [20]
CC[P+](C)(Cc1ccccc1)c1ccccc1 (stereo not given)	91.8 µM (inactive)	24.7 µM (inactive)	> 100 µM (inactive)	> 100 µM (inactive)	> 100 µM (inactive)	> 100 µM (inactive)	> 100 µM (inactive)	> 100 µM (inactive)	> 100 µM (inactive)	> 100 µM (inactive)	> 100 µM (inactive)	44.2 µM (inactive)	> 100 µM (inactive)	> 100 µM (inactive)						
COc1cc2ccc(C(=O)O)cc2cc1OC	> 100 µM (inactive)	> 100 µM (inactive)	> 100 µM (inactive)		> 100 µM (inactive)	> 100 µM (inactive)	> 100 µM (inactive)	> 100 µM (inactive)	> 100 µM (inactive)	> 100 µM (inactive)	> 100 µM (inactive)	> 100 µM (inactive)	49.7 µM (inactive)	> 100 µM (inactive)	> 100 µM (inactive)					
O=C1C=C(c2ccccc2)NC1(c1ccccc1)c1cc(-c2ccccc2)[nH]c1-c1ccccc1 (stereo not given)		< 0.01 µM (active)		> 100 µM (inactive)	> 100 µM (inactive)	> 100 µM (inactive)	> 100 µM (inactive)	> 100 µM (inactive)	> 100 µM (inactive)		> 100 µM (inactive)		> 100 µM (inactive)	> 100 µM (inactive)		> 100 µM (inactive)				
CC(C)c1cccc(C(C)C)c1NC(=O)CCC(=O)NN	> 100 µM (inactive)		> 100 µM (inactive)	> 100 µM (inactive)	> 100 µM (inactive)	> 100 µM (inactive)	> 100 µM (inactive)	> 100 µM (inactive)	84.9 µM (inactive)		> 100 µM (inactive)		> 100 µM (inactive)		> 100 µM (inactive)	> 100 µM (inactive)				
O=C(CC/C(CC(=O)c1ccc(Cl)cc1)=N\O)Nc1cccc(Cl)c1	> 100 µM (inactive)	> 100 µM (inactive)		> 100 µM (inactive)	> 100 µM (inactive)	> 100 µM (inactive)	> 100 µM (inactive)	> 100 µM (inactive)	> 100 µM (inactive)	> 100 µM (inactive)	> 100 µM (inactive)		> 100 µM (inactive)	> 100 µM (inactive)		> 100 µM (inactive)				
Cc1nc2cc(/N=N/c3c(O)ccc4ccccc34)ccc2[nH]1	> 51.2 µM (inactive)		> 62.2 µM (inactive)	24 µM (inactive)	> 100 µM (inactive)	44.5 µM (inactive)	38.4 µM (inactive)	16.1 µM (inactive)	34.8 µM (inactive)	18.5 µM (inactive)	27.4 µM (inactive)	22.8 µM (inactive)	> 55 µM (inactive)	42.2 µM (inactive)	24 µM (inactive)	26.6 µM (inactive)	17 µM (inactive)	21 µM (inactive)	24.3 µM (inactive)	28.2 µM (inactive)
Cc1cc(C)c2c(c1)CN1CN2Cc2cc(C)cc(C)c21		18.2 µM (inactive)	26 µM (inactive)	24.7 µM (inactive)		27.2 µM (inactive)	18.2 µM (inactive)	24.6 µM (inactive)	15.9 µM (inactive)	17 µM (inactive)	17.8 µM (inactive)	29 µM (inactive)		> 10 µM (inactive)	> 10 µM (inactive)	34.1 µM (inactive)				
CC1=C(NC(=O)C(=O)NNC(=O)c2ccncc2)C(=O)c2ccccc2C1=O	5.26 µM (inactive)		14.2 µM (inactive)	13.8 µM (inactive)	23.4 µM (inactive)	13.6 µM (inactive)	9.84 µM (inactive)	20 µM (inactive)	4.44 µM (inactive)	3.66 µM (inactive)	18.4 µM (inactive)	12.4 µM (inactive)	23.8 µM (inactive)	2.3 µM (inactive)	15.5 µM (inactive)	22.8 µM (inactive)				
O=C1Cc2ccccc2N1/N=C\c1ccc([N+](=O)[O-])cc1	> 100 µM (inactive)	> 100 µM (inactive)	> 100 µM (inactive)	> 100 µM (inactive)	> 100 µM (inactive)	> 100 µM (inactive)	> 100 µM (inactive)	> 100 µM (inactive)	> 100 µM (inactive)	> 100 µM (inactive)	> 100 µM (inactive)		> 100 µM (inactive)	> 100 µM (inactive)	> 100 µM (inactive)	> 100 µM (inactive)				
O=C(OCc1ccccc1)c1ccccc1-c1c2ccc(=O)cc-2oc2cc(OCc3ccccc3)ccc12	12.1 µM (inactive)	15.7 µM (inactive)	11.6 µM (inactive)	5.01 µM (inactive)	14.6 µM (inactive)	6.7 µM (inactive)	15.8 µM (inactive)	3.61 µM (inactive)	15.7 µM (inactive)	6.43 µM (inactive)	12.1 µM (inactive)		25.5 µM (inactive)	18.7 µM (inactive)	3.56 µM (inactive)	5.22 µM (inactive)				
CC(C)N(C(=O)C12C3C4C1C1C2C3C41C(=O)N(C(C)C)C(C)C)C(C)C (stereo not given)	> 50 µM (inactive)	> 50 µM (inactive)	> 50 µM (inactive)	> 50 µM (inactive)	> 50 µM (inactive)	> 50 µM (inactive)	> 50 µM (inactive)	> 50 µM (inactive)	> 50 µM (inactive)	> 50 µM (inactive)	> 50 µM (inactive)	> 50 µM (inactive)	> 50 µM (inactive)	> 50 µM (inactive)		> 50 µM (inactive)				
CC1(C)Cc2c(oc3ncnc(N)c23)CS1	> 100 µM (inactive)	> 100 µM (inactive)	89.7 µM (inactive)	> 100 µM (inactive)	> 100 µM (inactive)	> 100 µM (inactive)	> 100 µM (inactive)	> 100 µM (inactive)	> 100 µM (inactive)	> 100 µM (inactive)	> 100 µM (inactive)	> 100 µM (inactive)		> 100 µM (inactive)		> 100 µM (inactive)				
CCCNC(=O)C1C(=O)C(=O)N(CCC)C1=O (stereo not given)	> 100 µM (inactive)	> 100 µM (inactive)		> 100 µM (inactive)	> 100 µM (inactive)	> 100 µM (inactive)	> 100 µM (inactive)	> 100 µM (inactive)	> 100 µM (inactive)	> 100 µM (inactive)	> 100 µM (inactive)	> 100 µM (inactive)	> 100 µM (inactive)	> 100 µM (inactive)	> 100 µM (inactive)	> 100 µM (inactive)				
Cc1ccc(C2OC(COCc3ccc(Cl)cc3)C(OCc3ccc(Cl)cc3)C2O)cc1 (stereo not given)	> 10 µM (inactive)	10.2 µM (inactive)	1.36 µM (inactive)	9.29 µM (inactive)	12.6 µM (inactive)	9.42 µM (inactive)			4.49 µM (inactive)		13.7 µM (inactive)			11.1 µM (inactive)	3.18 µM (inactive)	11.4 µM (inactive)				
COC(=O)NC12CC3CC(CC(F)(C3)C1)C2	> 100 µM (inactive)	> 100 µM (inactive)		> 100 µM (inactive)	> 100 µM (inactive)	> 100 µM (inactive)	> 100 µM (inactive)	> 100 µM (inactive)	> 100 µM (inactive)	> 100 µM (inactive)	> 100 µM (inactive)	> 100 µM (inactive)	> 100 µM (inactive)	> 100 µM (inactive)	> 100 µM (inactive)					
O=C(CCC(=O)Nc1cccc(Cl)c1)CC(=O)c1ccc(F)cc1	> 100 µM (inactive)	> 100 µM (inactive)	> 100 µM (inactive)	> 100 µM (inactive)	> 100 µM (inactive)	> 100 µM (inactive)	> 100 µM (inactive)		> 100 µM (inactive)	> 100 µM (inactive)	> 100 µM (inactive)	> 100 µM (inactive)		> 100 µM (inactive)	> 100 µM (inactive)	> 100 µM (inactive)				
CC(=O)O[C@]12CCCCCC1C1(O)C(O)CCCCC12 (stereo not given in full)	> 100 µM (inactive)	> 100 µM (inactive)	> 100 µM (inactive)		> 100 µM (inactive)	> 100 µM (inactive)	> 100 µM (inactive)	> 100 µM (inactive)	> 100 µM (inactive)	> 100 µM (inactive)	> 100 µM (inactive)	> 100 µM (inactive)		> 100 µM (inactive)						
CCOC(=O)[C@]12C3C=CC(C3)C1C(=O)C1OC12 (stereo not given in full)	> 100 µM (inactive)	> 100 µM (inactive)	> 100 µM (inactive)	> 100 µM (inactive)		> 100 µM (inactive)		> 100 µM (inactive)	> 100 µM (inactive)	> 100 µM (inactive)	> 100 µM (inactive)	> 100 µM (inactive)	> 100 µM (inactive)	> 100 µM (inactive)	0.109 µM (active)	> 100 µM (inactive)				
O=c1c(O)c(-c2ccc(O)c(O)c2)oc2cc(O)ccc12 [FISETIN]	20.4 µM (inactive)	20.9 µM (inactive)	9.79 µM (inactive)	20.2 µM (inactive)	27.2 µM (inactive)	30.3 µM (inactive)	18.2 µM (inactive)	8.99 µM (inactive)	8.05 µM (inactive)	13.6 µM (inactive)	21.8 µM (inactive)	13.6 µM (inactive)	26.3 µM (inactive)	8.75 µM (inactive)	28.2 µM (inactive)					
